The text below walks through data of publication PMC12372887, “Mechanism and cellular actions of the potent AMPK inhibitor BAY-3827” (Science Advances, 2025).

“And” between values parts separate entries of the source, which are not always exact repeats. Equal values may be shown once. Read-outs that look alike come from different tables or passages of the source.

The target in assay [1] is T1, AMPKα2β2γ1 (Homo sapiens, UniProt P54646).
T1 construct: made in house; host or cells: HEK293 (transient transfection, anti-FLAG immunoprecipitate)
Nature of the assay: Cell-free AMPK kinase assay (SAMS peptide). The assay is classed as biochemical. The settings on record: 200 μM ATP; 0 to 1 μM compound. Here is the method: (§1) Heterotrimeric human AMPK FLAG- α1β1γ1, FLAG- α2β1γ1, and FLAG- α2β2γ1, as well as human FLAG-CaMKK2 and FLAG-ULK1, were produced in mammalian HEK293 cells as described ([66], [67]). For AMPK expression, the cells were triply transfected at 60% confluency using FuGene HD (Roche Applied Science) and 1 μg of pcDNA3 plasmid expression constructs for AMPK Flag-α1, β1-Myc, β2-Myc, and HA-γ1. For CaMKK2 expression, the cells were transfected with 1 μg of pcDNA3 Flag-CaMKK2 plasmid. For ULK1 expression, the cells were transfected with […] of pcDNA3 FLAG-ULK1 plasmid. After 48 hours, the transfected cells were harvested by rinsing with ice-cold PBS, followed by rapid lysis using 500 μl of lysis buffer. AMPK, CaMKK2, and ULK1 kinase activities were determined by phosphorylation of synthetic peptide substrates: SAMS (HMRSAMSGLHLVKRR), CaMKKtide ([…]), and S108tide. (KLPLTRSHNNFVARRR), respectively. Briefly, recombinant AMPK, CaMKK2, or ULK1 were immunoprecipitated from 10 μg of transfected cultured cell lysate using 10 μl of anti-FLAG M2 agarose beads [50% (v/v)] (Merck MilliporeSigma), washed, and then added to a 25-μl reaction containing assay buffer [50 mM Hepes-NaOH (pH 7.4), 1 mM DTT, and 0.02% (v/v) Brij-35], 200 μM synthetic peptide substrate (SAMS, CaMKKtide, or S108tide), 200 or 20 μM [γ-^32P]-ATP (PerkinElmer), 5 mM MgCl2, in the presence of 0 to 1 μM BAY-3827 or BAY-974. Reactions were performed at 30°C and terminated after 10 min by spotting 15 μl onto phosphocellulose paper. Radioactivity was quantified by liquid scintillation counting. Data visualization and nonlinear regression fitting were performed in GraphPad Prism v10.
(§2) Data points are plotted as means ± SEM. Data were inputted, and all statistical tests were performed using GraphPad Prism, version 10.1.0. One- or two-way analysis of variance (ANOVA) statistical tests were conducted using Tukey’s correction for multiple comparisons; specific test will be stated in the figure legend. Significance was accepted as P < 0.05. N number and statistical details for each experiment are reported in each figure legend. […] To estimate IC50 values, nonlinear regression fitting was conducted using the model (Inhibitor) versus response—variable slope in GraphPad Prism (version 10.1.0) and estimating values reported in nanomolar. To estimate binding affinities (Kd) from performed spectral shift binding assays, data were fitted using a one-site total model [Y = BmaxX/(Kd + X) + NSX + Background] where X is the ligand concentration, Bmax represents the maximum binding, and NS is the slope of the nonlinear regression of Y/X. Values are reported in means ± SEM in micromolar.

In assay [2] the target is T2, AMPKα1β1γ1 (Homo sapiens, UniProt Q13131).
T2 construct: made in house; host or cells: HEK293 (transient transfection, anti-FLAG immunoprecipitate)
Nature of the assay: Cell-free AMPK kinase assay (SAMS peptide). The assay is classed as biochemical. The settings on record: 200 μM ATP; 0 to 1 μM compound. Here is the method:
as §1, §2

Assay [3] concerns the target T3, AMPKα2β1γ1 (Homo sapiens, UniProt P54646).
T3 construct: made in house; host or cells: HEK293 (transient transfection, anti-FLAG immunoprecipitate)
The assay is described as follows: Cell-free AMPK kinase assay (SAMS peptide). Type of assay: biochemical. The following applies: 200 μM ATP; 0 to 1 μM BAY-974. Here is the method:
as §1, §2

In assay [4] the target is T4, AMPKα2β1γ1 (Homo sapiens, UniProt P54619+P54646+Q9Y478).
T4 construct: made in house; host or cells: HEK293 (transient transfection, anti-FLAG immunoprecipitate)
Nature of the assay: Cell-free AMPK kinase assay (SAMS peptide). The assay is classed as biochemical. As to the method:
as §1, §2

The target in assay [5] is T5, AMPKα2β2γ1 (Homo sapiens, UniProt O43741+P54619+P54646).
T5 construct: made in house; host or cells: HEK293 (transient transfection, anti-FLAG immunoprecipitate)
Nature of the assay: Cell-free AMPK kinase assay (SAMS peptide). Type of assay: biochemical. Here is the method:
as §1, §2

In assay [6] the target is T6, AMPKα1β1γ1 (Homo sapiens, UniProt P54619+Q13131+Q9Y478).
T6 construct: made in house; host or cells: HEK293 (transient transfection, anti-FLAG immunoprecipitate)
The assay is described as follows: Cell-free AMPK kinase assay (SAMS peptide). The assay is classed as biochemical. As to the method: as §1, §2

Assay [7] deals with T7, nonphosphorylated AMPKα2β2γ1 complex (Homo sapiens, UniProt O43741+P54619+P54646).
T7 construct: For expression of full-length AMPKα2β2γ1, α2β2γ2, and α2β2γ3 complexes; made in house; host or cells: E. coli BL21(DE3)-RIL
The assay is described as follows: Spectral shift (Dianthus) binding assay. The settings on record: read-out: dissociation constant (Kd). Here is the method: (§3) The binding affinity of BAY-3827 to α2KD, AMPK (T172D)-α2KD, or AMPK complexes α2β2γ1 and α2β2γ3 was measured by Dianthus (Nano Temper Technologies). BAY-3827 was diluted from a 100 mM stock in DMSO to 0.5 mM working concentration in the assay buffer (PBS with 0.005% Tween-20) with a final DMSO concentration of 2.5%, which was kept constant throughout the concentration gradient of the compound. For additional experiments, assay buffer containing Hepes 25 mM, NaCl 250 mM, and 0.005% Tween-20 was used to optimize the assay, enhancing signal-to-noise ratios. His-tagged α2KD, T172D-α2KD, or His-tagged AMPK-α2β2γ1 or α2β2γ3 complexes were labeled with His-tag labeling dye (His-Tag Labeling Kit RED-tris-NTA 2nd Generation). The ratio of fluorescence intensities (670/650 nm) over BAY-3827 concentration gradient ranging from 250 μM down to 0.015 μM. The concentration gradient was prepared by 1:1 serial dilution over 16 steps, with a setup of two to three technical replicates for each concentration. The binding experiments were repeated three times, and the mean Kd values of the inhibitor are reported in the appropriate figure alongside ± SEM (micromolar) displaying a representative graph. A concentration of 50 nM of the corresponding protein target was used in each performed assay. The ratio of fluorescence intensities was measured over BAY-3827 concentration gradient in GraphPad Prism using nonlinear regression (one site-total binding). Data quality was assessed by monitoring XYZ scans for each well to detect air bubbles or aggregation where present following the manufacturer’s instructions.
as §2

Another assay has as its target T8, AMPKα2 (T172D)–α2KD (Homo sapiens, UniProt P54646, T172D).
T8 construct: human AMPK-α2 KD (α2KD; residues 6 to 280); made in house; host or cells: E. coli BL21(DE3)-RIL
Nature of the assay: Spectral shift (Dianthus) binding assay. The following applies: read-out: dissociation constant (Kd). Here is the method: as §3, §2

In assay [8] the target is T9, AMPKα2 kinase domain (α2KD), WT (Homo sapiens, UniProt P54646).
T9 construct: human AMPK-α2 KD (α2KD; residues 6 to 280); made in house; host or cells: E. coli BL21(DE3)-RIL
The assay is described as follows: Spectral shift (Dianthus) binding assay. The following applies: read-out: dissociation constant (Kd). As to the method: as §3, §2

In assay [9] the target is T10, nonphosphorylated AMPKα2β2γ3 complex (Homo sapiens, UniProt O43741+P54646+Q9UGI9).
T10 construct: For expression of full-length AMPKα2β2γ1, α2β2γ2, and α2β2γ3 complexes; made in house; host or cells: E. coli BL21(DE3)-RIL
The assay is described as follows: Spectral shift (Dianthus) binding assay. The settings on record: read-out: dissociation constant (Kd). As to the method:
as §3, §2

T6 sequence (Q13131 whole entry): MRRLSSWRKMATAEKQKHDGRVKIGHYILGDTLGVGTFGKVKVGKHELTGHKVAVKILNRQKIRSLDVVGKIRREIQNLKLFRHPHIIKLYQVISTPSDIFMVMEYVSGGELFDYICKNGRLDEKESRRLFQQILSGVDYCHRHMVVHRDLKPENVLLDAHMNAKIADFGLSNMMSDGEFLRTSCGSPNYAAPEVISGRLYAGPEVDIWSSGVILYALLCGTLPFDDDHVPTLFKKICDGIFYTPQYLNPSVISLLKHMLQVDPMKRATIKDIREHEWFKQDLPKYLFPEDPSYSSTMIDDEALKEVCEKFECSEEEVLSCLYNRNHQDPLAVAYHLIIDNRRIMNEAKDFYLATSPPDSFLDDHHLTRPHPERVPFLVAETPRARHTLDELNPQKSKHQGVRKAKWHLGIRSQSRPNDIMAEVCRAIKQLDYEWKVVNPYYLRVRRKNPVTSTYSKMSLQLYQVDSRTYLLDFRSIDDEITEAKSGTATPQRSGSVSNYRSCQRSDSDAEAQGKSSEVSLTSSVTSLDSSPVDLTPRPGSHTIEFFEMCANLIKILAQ
T6 sequence (Q9Y478 whole entry partner): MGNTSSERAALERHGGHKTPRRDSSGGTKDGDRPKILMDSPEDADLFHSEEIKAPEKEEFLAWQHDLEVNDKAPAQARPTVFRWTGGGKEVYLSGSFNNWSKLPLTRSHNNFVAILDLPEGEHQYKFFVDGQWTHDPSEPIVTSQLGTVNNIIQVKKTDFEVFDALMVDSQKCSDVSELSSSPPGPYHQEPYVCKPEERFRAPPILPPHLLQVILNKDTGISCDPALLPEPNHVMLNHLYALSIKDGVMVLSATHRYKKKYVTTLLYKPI
T6 sequence (P54619 whole entry partner): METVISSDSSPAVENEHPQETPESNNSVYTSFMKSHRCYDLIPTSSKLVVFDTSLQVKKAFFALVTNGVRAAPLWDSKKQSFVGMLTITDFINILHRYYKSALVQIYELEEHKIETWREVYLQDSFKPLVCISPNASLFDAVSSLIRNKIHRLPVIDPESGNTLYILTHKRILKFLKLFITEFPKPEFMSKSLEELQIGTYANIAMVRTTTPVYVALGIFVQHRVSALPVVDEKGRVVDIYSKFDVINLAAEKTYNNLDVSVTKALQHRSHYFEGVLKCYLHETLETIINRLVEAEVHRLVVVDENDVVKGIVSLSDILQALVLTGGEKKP
T4 sequence (P54646 whole entry): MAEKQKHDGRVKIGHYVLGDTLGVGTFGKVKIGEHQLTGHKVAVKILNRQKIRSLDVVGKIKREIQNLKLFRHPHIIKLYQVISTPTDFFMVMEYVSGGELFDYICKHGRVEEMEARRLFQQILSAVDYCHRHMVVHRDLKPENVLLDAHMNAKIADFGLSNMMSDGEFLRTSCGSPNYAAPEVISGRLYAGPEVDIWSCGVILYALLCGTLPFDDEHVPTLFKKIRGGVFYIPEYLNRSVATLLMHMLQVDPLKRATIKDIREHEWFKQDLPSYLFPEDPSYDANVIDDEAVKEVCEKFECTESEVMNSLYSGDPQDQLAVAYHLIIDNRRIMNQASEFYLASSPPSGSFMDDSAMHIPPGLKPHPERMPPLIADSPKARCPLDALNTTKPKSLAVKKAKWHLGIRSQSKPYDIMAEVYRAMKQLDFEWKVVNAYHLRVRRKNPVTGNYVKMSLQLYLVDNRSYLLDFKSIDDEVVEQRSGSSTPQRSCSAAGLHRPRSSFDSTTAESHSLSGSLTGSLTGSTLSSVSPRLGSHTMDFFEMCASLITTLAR
T4 sequence (Q9Y478 whole entry partner): as the sequence (Q9Y478 whole entry partner) above
T4 sequence (P54619 whole entry partner): as the sequence (P54619 whole entry partner) above
T5 sequence (P54646 whole entry): as the sequence (P54646 whole entry) above
T5 sequence (O43741 whole entry partner): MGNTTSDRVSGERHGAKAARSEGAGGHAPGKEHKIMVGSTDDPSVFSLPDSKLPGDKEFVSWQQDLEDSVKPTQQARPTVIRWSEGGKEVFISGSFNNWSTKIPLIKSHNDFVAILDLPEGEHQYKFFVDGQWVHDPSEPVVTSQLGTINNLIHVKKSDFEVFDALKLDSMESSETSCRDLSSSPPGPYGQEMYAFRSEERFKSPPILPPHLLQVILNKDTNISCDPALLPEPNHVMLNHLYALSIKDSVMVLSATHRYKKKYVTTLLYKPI
T5 sequence (P54619 whole entry partner): as the sequence (P54619 whole entry partner) above
T8 sequence (P54646 6-280 T172D): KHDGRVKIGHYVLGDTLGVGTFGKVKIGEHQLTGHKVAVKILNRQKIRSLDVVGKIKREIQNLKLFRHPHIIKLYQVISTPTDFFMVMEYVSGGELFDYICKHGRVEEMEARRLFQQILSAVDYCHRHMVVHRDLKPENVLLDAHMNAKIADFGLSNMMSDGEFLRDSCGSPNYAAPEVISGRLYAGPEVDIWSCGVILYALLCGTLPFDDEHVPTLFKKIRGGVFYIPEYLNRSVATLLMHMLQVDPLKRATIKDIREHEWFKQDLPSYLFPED
T9 sequence (P54646 6-280): as the sequence (P54646 6-280 T172D) above, with D167T counted along it
T2 sequence (Q13131 whole entry): as the sequence (Q13131 whole entry) above
T2 sequence (Q9Y478 whole entry partner): as the sequence (Q9Y478 whole entry partner) above
T2 sequence (P54619 whole entry partner): as the sequence (P54619 whole entry partner) above
T7 sequence (P54646 whole entry): as the sequence (P54646 whole entry) above
T7 sequence (O43741 whole entry partner): as the sequence (O43741 whole entry partner) above
T7 sequence (P54619 whole entry partner): as the sequence (P54619 whole entry partner) above
T3 sequence (P54646 whole entry): as the sequence (P54646 whole entry) above
T3 sequence (Q9Y478 whole entry partner): as the sequence (Q9Y478 whole entry partner) above
T3 sequence (P54619 whole entry partner): as the sequence (P54619 whole entry partner) above
T1 sequence (P54646 whole entry): as the sequence (P54646 whole entry) above
T1 sequence (O43741 whole entry partner): as the sequence (O43741 whole entry partner) above
T1 sequence (P54619 whole entry partner): as the sequence (P54619 whole entry partner) above
T10 sequence (P54646 whole entry): as the sequence (P54646 whole entry) above
T10 sequence (O43741 whole entry partner): as the sequence (O43741 whole entry partner) above
T10 sequence (Q9UGI9 whole entry partner): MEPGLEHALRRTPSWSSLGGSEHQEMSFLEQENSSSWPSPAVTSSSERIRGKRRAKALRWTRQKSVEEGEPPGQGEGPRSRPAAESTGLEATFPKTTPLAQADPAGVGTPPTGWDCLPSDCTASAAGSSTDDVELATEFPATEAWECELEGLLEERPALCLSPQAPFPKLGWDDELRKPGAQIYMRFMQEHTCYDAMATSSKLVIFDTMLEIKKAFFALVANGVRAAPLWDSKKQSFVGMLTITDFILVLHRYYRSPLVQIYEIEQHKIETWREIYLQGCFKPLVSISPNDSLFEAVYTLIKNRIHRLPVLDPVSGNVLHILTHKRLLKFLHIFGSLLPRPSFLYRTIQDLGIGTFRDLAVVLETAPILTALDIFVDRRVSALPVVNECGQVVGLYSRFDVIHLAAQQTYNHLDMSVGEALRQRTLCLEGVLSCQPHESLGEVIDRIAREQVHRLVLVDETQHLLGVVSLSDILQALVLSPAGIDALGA

On to `CC1=C(C#N)C(c2ccc3c(c2)c(NC(=O)c2ccccc2C)nn3C)C(C#N)=C(C)N1` [BAY-974, N-[5-(3,5-dicyano-2,6-dimethyl-1,4-dihydropyridin-4-yl)-1-methylindazol-3-yl]-2-methylbenzamide], for which the “inhibitory effect on AMPK complex” value on AMPKα2β2γ1 [1], against AMPKα1β1γ1 [2] and at AMPKα2β1γ1 [3] was “no effect” each time.

`CCc1ccccc1C(=O)Nc1n[nH]c2c(C)c(F)c(C3C(C#N)=C(C)N(C)C(C)=C3C#N)cc12` [BAY-3827, N-[5-(3,5-dicyano-1,2,6-trimethyl-4H-pyridin-4-yl)-6-fluoro-7-methyl-1H-indazol-3-yl]-2-ethylbenzamide]: the IC50 against AMPKα2β1γ1 [4] (20 μM ATP) is 0.0041 µM and 0.00408 µM; on AMPKα2β1γ1 [4] (200 μM ATP), 0.057 µM and 0.0571 µM; at AMPKα2β2γ1 [5] (20 μM ATP) it was 0.0028 µM and 0.00283 µM; on AMPKα2β2γ1 [5] (200 μM ATP), 0.0365 µM; against AMPKα1β1γ1 [6] (20 μM ATP), 0.0018 µM; on AMPKα1β1γ1 [6] (200 μM ATP) it was 0.0312 µM. For the same molecule, the Kd was found to be 11.3 ± 5.23 µM in [7]; 9.01 ± 1.85 µM on AMPKα2 (T172D)–α2KD (+3 mM DTT); 8.65 ± 1.38 µM at AMPKα2 (T172D)–α2KD (- DTT); 28.6 ± 12.5 µM in assay [8] (+3 mM DTT); 1.23 µM in assay [8] (without DTT); 21.8 ± 8.51 µM in assay [9].
